# Read-outs that look alike come from different tables or passages of the source.
# Legend:
# human CB2 receptors = molecular target: T1, human CB2 receptors (Homo sapiens, UniProt P34972); experiment: human CB2 radioligand binding assay ([3H]CP-55,940 competition)
# T1 construct: expressed in transfected cells; host or cells: HEK293
# rat CB2 = molecular target: T2, rat CB2 (Rattus norvegicus, UniProt Q9QZN9); experiment: rat CB2 radioligand binding assay ([3H]CP-55,940 competition); design: expressed in transfected cells; host or cells: HEK293
# T2 sequence (Q9QZN9 1-360): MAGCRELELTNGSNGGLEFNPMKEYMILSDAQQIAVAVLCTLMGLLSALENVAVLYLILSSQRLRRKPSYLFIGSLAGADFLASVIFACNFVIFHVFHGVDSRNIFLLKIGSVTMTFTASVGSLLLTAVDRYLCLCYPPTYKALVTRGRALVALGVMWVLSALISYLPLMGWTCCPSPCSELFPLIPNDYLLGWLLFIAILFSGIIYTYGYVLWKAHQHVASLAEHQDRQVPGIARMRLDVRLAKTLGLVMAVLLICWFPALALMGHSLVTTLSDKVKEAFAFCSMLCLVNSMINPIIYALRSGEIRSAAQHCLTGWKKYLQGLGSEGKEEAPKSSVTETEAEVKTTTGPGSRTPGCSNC
# [1] = HEK293 membranes, 0.5 nM [3H]CP-55,940, read-out: human CB2 (Ki)
# [2] = HEK293 membranes, 0.5 nM [3H]CP-55,940, read-out: rat CB2 (Ki)
# T1 sequence (P34972 whole entry): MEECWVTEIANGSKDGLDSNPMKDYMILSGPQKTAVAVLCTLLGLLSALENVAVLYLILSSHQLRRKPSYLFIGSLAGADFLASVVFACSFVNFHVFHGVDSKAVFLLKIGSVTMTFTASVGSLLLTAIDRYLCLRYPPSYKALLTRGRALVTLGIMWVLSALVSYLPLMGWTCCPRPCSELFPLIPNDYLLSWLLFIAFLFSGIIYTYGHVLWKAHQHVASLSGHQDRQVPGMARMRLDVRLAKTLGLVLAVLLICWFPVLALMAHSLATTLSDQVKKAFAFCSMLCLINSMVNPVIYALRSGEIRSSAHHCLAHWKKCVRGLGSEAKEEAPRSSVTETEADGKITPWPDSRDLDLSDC
SMILES,Ki (human CB2 receptors) [µM],Ki (rat CB2) [µM],Ki (human CB2 receptors; [1]) [µM],Ki (rat CB2; [2]) [µM]
"CCCCc1cn(C(C)(C)C)s/c1=N\C(=O)c1cc(I)ccc1OC [Example 61, N-[(5Z)-4-butyl-2-tert-butylisothiazol-5(2H)-ylidene]-5-iodo-2-methoxybenzamide]",0.0076,0.00051,,
"CCC1CC1c1cn(C(C)(C)C)s/c1=N\C(=O)c1cc(Cl)ccc1OC (stereo not shown) [Example 27, N-[(5Z)-2-tert-butyl-4-(2-ethylcyclopropyl)isothiazol-5(2H)-ylidene]-5-chloro-2-methoxybenzamide]",,0.023,0.24,
"CCCCc1cn(C(C)(C)C)s/c1=N\C(=O)C12CCC(C(=O)OC)(CC1)CC2 [Example 108, Methyl 4-({[(5Z)-4-butyl-2-tert-butylisothiazol-5(2H)-ylidene]amino}carbonyl)bicyclo[2.2.2]octane-1-carboxylate]",,0.013,0.18,
"C#Cc1ccc(OC)c(C(=O)/N=c2\sn(C(C)(C)C)cc2CCCC)c1 [Example 62, N-[(5Z)-4-butyl-2-tert-butylisothiazol-5(2H)-ylidene]-5-ethynyl-2-methoxybenzamide]",0.027,0.0031,,
"COc1ccc(Cl)cc1C(=O)/N=c1\sn(C(C)(C)C)cc1C(O)c1cccs1 (stereo not shown) [Example 44, N-[(5Z)-2-tert-butyl-4-[hydroxy(thien-2-yl)methyl]isothiazol-5(2H)-ylidene]-5-chloro-2-methoxybenzamide]",0.027,0.0021,,
"COc1ccc(Cl)cc1C(=O)/N=c1\sn(C(C)(C)C)cc1CN=[N+]=[N-] [Example 32, N-[(5Z)-4-(azidomethyl)-2-tert-butylisothiazol-5(2H)-ylidene]-5-chloro-2-methoxybenzamide]",0.17,0.02,,
"CCCCc1cn(C(C)(C)C)s/c1=N\C(=O)[C@@]1(C)CC[C@@H](C2=NCCO2)C1(C)C [Example 231, (1S,3R)—N-[(5Z)-4-butyl-2-tert-butylisothiazol-5(2H)-ylidene]-3-(4,5-dihydro-1,3-oxazol-2-yl)-1,2,2-trimethylcyclopentanecarboxamide]",0.051,0.011,,
"CCCCc1cn(C(C)(C)C)s/c1=N\C(=O)[C@]1(C)CC[C@H](C(=O)NN2CCCC2)C1(C)C [Example 249, (1R,3S)—N^1-[(5Z)-4-butyl-2-tert-butylisothiazol-5(2H)-ylidene]-1,2,2-trimethyl-N^3-pyrrolidin-1-ylcyclopentane-1,3-dicarboxamide]",,,0.11,0.325
"CCCCc1cn(C(C)(C)C)s/c1=N\C(=O)[C@]1(C)CC[C@H](C(=O)NCc2ccccn2)C1(C)C [Example 234, (1R,3S)—N^1-[(5Z)-4-butyl-2-tert-butylisothiazol-5(2H)-ylidene]-1,2,2-trimethyl-N^3-(pyridin-2-ylmethyl)cyclopentane-1,3-dicarboxamide]",,,0.32,0.142
"CCCCc1cn(C(C)(C)C)s/c1=N\C(=O)C1(c2ccccc2)CCCC1 [Example 98, N-[(5Z)-4-butyl-2-tert-butylisothiazol-5(2H)-ylidene]-1-phenylcyclopentanecarboxamide]",0.01,0.0048,,
"C#CCNC(=O)[C@H]1CC[C@@](C)(C(=O)/N=c2\sn(C(C)(C)C)cc2CCCC)C1(C)C [Example 237, (1R,3S)—N^1-[(5Z)-4-butyl-2-tert-butylisothiazol-5(2H)-ylidene]-1,2,2-trimethyl-N^3-prop-2-ynylcyclopentane-1,3-dicarboxamide]",0.023,0.018,,
"CCCCc1cn(C(C)(C)C)s/c1=N\C(=O)OCC(C)(C)C [Example 187, Neopentyl (5Z)-4-butyl-2-tert-butylisothiazol-5(2H)-ylidenecarbamate]",0.038,0.0082,,
"CCCCc1cn(C(C)(C)C)s/c1=N\C(=O)[C@]1(C)CC[C@H](C(=O)N2CCC2)C1(C)C [Example 178, (1R,3S)-3-(azetidin-1-ylcarbonyl)-N-[(5Z)-4-butyl-2-tert-butylisothiazol-5(2H)-ylidene]-1,2,2-trimethylcyclopentanecarboxamide]",0.17,0.046,,
"CCCCc1cn(C(C)(C)C)s/c1=N\C(=O)C1(c2ccc(F)cc2Cl)CCCCC1 [Example 95, N-[(5Z)-4-butyl-2-tert-butylisothiazol-5(2H)-ylidene]-1-(2-chloro-4-fluorophenyl)cyclohexanecarboxamide]",0.0075,0.0023,,
"CCCC1CCc2c(/c(=N/C(=O)c3cc(Cl)ccc3OC)sn2C(C)(C)C)C1 (stereo not shown) [Example 9, N-[(3Z)-1-tert-butyl-5-propyl-4,5,6,7-tetrahydro-2,1-benzisothiazol-3(1H)-ylidene]-5-chloro-2-methoxybenzamide]",0.0009,0.00042,,
"CCCCc1cn(C(C)(C)C)s/c1=N\C(=O)[C@@]1(C)CC[C@@H](C(=O)NC2CCC2)C1(C)C [Example 225, (1S,3R)—N^1-[(5Z)-4-butyl-2-tert-butylisothiazol-5(2H)-ylidene]-N^3-cyclobutyl-1,2,2-trimethylcyclopentane-1,3-dicarboxamide]",,,0.29,0.423
"COc1ccc(Cl)cc1C(=O)/N=c1\sn(C(C)(C)C)cc1Cc1ccccc1 [Example 35, N-[(5Z)-4-benzyl-2-tert-butylisothiazol-5(2H)-ylidene]-5-chloro-2-methoxybenzamide]",0.0091,0.0011,,
"CC(C)Cc1cn(C(C)(C)C)s/c1=N\C(=O)c1cc(C(F)(F)F)ccc1OCc1ccccn1 [Example 200, N-[(5Z)-2-tert-butyl-4-isobutylisothiazol-5(2H)-ylidene]-2-(pyridin-2-ylmethoxy)-5-(trifluoromethyl)benzamide]",,,0.47,0.391
"COc1ccc(C#N)cc1C(=O)/N=c1\sn(C(C)(C)C)cc1Cc1cccs1 [Example 53, N-[(5Z)-2-tert-butyl-4-(thien-2-ylmethyl)isothiazol-5(2H)-ylidene]-5-cyano-2-methoxybenzamide]",0.059,0.0026,,
"CC(C)Cc1cn(C(C)(C)C)s/c1=N\C(=O)c1cc(C(F)(F)F)ccc1OC[C@@H]1CCCN1C [Example 197, N-[(5Z)-2-tert-butyl-4-isobutylisothiazol-5(2H)-ylidene]-2-{[(2S)-1-methylpyrrolidin-2-yl]methoxy}-5-(trifluoromethyl)benzamide]",,,0.26,0.156
"CCCCc1cn(C(C)(C)C)s/c1=N\C(=O)N[C@H](C(=O)NC)C(C)(C)C [Example 190, N^2-({[(5Z)-4-butyl-2-tert-butylisothiazol-5(2H)-ylidene]amino}carbonyl)-N^1,3-dimethyl-L-valinamide]",0.0024,0.0024,,
"COc1ccc(Cl)cc1C(=O)/N=c1\sn(C(C)(C)C)cc1COC[C@H]1CCCO1 [Example 89, N-[(5Z)-2-tert-butyl-4-{[(2R)-tetrahydrofuran-2-ylmethoxy]methyl}isothiazol-5(2H)-ylidene]-5-chloro-2-methoxybenzamide]",,0.0079,0.19,
"CCCCc1cn(C(C)(C)C)s/c1=N\C(=O)[C@]1(C)CC[C@H](C(=O)N2CC(O)C2)C1(C)C [Example 180, (1R,3S)—N-[(5Z)-4-butyl-2-tert-butylisothiazol-5(2H)-ylidene]-3-[(3-hydroxyazetidin-1-yl)carbonyl]-1,2,2-trimethylcyclopentanecarboxamide]",,0.037,0.26,
